These results are taken from ChEMBL document CHEMBL1155005, “Ligands to the (IRAP)/AT4 receptor encompassing a 4-hydroxydiphenylmethane scaffold replacing Tyr2” (Bioorg Med Chem, 2008).

For the experiment, the target named is Aminopeptidase N (Homo sapiens, UniProt P15144). Kind of experiment: Inhibition of human recombinant APN expressed in HEK293 cells. It is filed as cell-based.
Sequence of Aminopeptidase N (P15144 whole entry): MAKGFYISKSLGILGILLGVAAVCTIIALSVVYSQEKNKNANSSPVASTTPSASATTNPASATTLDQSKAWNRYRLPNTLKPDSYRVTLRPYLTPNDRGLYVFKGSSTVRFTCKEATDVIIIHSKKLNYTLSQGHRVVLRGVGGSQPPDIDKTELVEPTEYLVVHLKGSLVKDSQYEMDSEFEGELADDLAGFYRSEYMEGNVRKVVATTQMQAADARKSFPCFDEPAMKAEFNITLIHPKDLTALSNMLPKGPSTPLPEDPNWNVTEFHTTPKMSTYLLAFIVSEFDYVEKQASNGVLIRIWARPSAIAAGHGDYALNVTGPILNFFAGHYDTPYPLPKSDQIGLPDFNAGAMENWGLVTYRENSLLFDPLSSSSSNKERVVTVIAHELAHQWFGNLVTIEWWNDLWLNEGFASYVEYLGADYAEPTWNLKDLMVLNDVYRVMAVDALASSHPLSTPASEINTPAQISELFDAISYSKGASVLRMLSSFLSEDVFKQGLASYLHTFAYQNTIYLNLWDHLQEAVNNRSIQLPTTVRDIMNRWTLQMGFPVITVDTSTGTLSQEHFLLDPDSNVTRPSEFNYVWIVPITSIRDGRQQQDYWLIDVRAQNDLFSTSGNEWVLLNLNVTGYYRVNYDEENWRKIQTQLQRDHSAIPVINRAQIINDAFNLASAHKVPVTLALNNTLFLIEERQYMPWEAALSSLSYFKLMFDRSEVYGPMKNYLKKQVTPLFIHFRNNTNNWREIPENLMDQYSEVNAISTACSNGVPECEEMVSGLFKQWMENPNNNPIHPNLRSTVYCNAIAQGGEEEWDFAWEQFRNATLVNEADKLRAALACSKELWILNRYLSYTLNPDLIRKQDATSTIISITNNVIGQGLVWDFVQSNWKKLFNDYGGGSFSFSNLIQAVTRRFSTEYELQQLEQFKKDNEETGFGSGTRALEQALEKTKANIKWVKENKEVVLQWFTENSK

The Ki is a measure of affinity in units of concentration, obtained from inhibition or displacement. Turning to `CC[C@@H](C)[C@H](NC(=O)c1cc(N)cc(Cc2ccc(O)cc2)c1)C(=O)NCc1ccccc1CC(=O)O`, the Ki is above 100 µM.
Take `Nc1cc(Cc2ccc(O)cc2)cc(C(=O)NCc2ccccc2CC(=O)O)c1`: the Ki is above 100 µM.
